{"source": "ChEMBL document CHEMBL1201862", "about": "“PubChem BioAssay data set” (2004)", "key": {"[1]": {"target": "SWI/SNF-related matrix-associated actin-dependent regulator of chromatin subfamily A member 2 (Homo sapiens, UniProt P51531)", "sequence (P51531 whole entry)": "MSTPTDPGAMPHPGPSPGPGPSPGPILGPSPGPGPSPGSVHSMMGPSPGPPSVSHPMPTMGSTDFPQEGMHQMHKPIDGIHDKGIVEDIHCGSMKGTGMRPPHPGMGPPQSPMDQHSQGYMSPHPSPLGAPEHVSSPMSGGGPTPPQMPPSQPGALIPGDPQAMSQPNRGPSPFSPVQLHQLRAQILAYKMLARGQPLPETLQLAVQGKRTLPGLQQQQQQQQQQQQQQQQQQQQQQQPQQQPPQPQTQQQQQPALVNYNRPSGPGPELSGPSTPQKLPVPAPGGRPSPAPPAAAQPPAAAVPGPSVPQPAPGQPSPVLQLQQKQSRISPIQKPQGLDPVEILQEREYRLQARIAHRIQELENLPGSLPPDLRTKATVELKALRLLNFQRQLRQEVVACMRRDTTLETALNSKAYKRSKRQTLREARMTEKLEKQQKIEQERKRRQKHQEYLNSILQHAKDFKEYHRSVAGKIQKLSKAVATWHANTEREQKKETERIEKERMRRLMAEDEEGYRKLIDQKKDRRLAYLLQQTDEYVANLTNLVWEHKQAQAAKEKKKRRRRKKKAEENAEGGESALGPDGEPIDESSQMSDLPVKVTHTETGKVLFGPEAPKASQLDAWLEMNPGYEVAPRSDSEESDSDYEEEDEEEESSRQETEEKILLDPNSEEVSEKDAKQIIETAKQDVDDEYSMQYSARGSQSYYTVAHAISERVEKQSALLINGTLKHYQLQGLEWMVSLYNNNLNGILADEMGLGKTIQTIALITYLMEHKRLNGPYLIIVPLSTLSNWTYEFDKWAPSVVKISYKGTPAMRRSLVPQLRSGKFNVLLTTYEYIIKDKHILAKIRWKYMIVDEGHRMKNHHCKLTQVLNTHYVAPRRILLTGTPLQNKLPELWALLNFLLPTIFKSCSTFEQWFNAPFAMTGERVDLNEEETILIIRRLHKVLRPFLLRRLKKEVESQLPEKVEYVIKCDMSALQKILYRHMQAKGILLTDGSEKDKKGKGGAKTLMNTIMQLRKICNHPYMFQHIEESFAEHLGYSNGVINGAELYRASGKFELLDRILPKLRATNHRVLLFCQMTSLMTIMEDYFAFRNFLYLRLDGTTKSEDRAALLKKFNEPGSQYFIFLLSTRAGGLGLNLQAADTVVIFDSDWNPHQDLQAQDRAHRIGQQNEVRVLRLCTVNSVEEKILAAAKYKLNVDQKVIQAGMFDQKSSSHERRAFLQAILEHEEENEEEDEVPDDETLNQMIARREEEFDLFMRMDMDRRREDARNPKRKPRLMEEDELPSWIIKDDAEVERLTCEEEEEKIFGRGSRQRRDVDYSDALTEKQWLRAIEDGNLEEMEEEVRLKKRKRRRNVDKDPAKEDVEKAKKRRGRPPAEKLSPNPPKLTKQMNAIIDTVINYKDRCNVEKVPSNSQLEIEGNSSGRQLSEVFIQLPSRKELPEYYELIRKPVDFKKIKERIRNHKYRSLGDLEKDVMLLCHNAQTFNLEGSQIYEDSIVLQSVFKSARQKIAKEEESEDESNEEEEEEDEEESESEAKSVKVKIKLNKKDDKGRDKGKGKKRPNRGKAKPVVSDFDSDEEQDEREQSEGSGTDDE", "experiment": "Luminescence-based cell-based high throughput dose response assay to identify activators of the function of SWI/SNF related, matrix associated, actin dependent regulator of chromatin, subfamily a, member 2 (SMARCA2, BRM).", "format": "functional"}, "[2]": {"target": "Photoreceptor-specific nuclear receptor (Homo sapiens, UniProt Q9Y5X4)", "sequence (Q9Y5X4 whole entry)": "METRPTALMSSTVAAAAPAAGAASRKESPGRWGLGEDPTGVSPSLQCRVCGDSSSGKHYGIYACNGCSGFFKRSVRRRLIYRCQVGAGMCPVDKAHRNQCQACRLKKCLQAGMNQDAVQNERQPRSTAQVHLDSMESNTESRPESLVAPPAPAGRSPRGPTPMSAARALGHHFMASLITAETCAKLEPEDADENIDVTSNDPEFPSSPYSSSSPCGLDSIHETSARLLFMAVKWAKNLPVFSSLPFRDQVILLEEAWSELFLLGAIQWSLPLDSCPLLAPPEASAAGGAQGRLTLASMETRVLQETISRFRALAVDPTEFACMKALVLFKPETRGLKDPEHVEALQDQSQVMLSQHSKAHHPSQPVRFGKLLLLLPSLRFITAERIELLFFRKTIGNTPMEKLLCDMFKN", "format": "functional, cell-based"}, "[3]": {"experiment": "growth suppression of PTEN-null colon cells, dose response, cell-based, HCT116 PTEN knockout (AID 1047);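 note: HCT116 colon tumor cells with PTEN knocked out; cells exposed to compound for 60 hours before readout; potency for loss of cell viability measured by luminescence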", "format": "functional"}, "[4]": {"experiment": "HEK293T cell cytotoxicity, dose response, cytotoxicity control for HIV Vif inhibitor project, cherry-picks (AID 652208)", "format": "functional, cell-based"}, "[5]": {"target": "T1, Heat shock factor protein 1 (Mus musculus, UniProt P38532)", "T1 sequence (P38532 whole entry)": "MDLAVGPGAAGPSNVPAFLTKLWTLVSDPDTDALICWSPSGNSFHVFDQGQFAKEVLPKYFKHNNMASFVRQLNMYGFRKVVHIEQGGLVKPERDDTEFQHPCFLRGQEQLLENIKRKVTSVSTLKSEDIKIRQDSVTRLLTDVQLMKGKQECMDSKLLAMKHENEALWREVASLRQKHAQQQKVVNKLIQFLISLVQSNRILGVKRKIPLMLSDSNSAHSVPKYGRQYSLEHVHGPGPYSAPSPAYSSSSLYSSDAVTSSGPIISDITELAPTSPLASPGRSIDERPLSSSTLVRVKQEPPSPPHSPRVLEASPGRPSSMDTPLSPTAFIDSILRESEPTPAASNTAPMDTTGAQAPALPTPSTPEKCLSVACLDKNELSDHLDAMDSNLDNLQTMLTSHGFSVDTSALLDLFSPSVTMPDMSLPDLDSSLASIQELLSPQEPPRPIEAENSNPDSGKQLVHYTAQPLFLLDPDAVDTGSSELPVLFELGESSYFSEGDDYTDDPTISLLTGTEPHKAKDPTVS", "experiment": "HSF1 potentiators in luciferase reporter cells, confirmation, cell-based, NIH3T3, luminescence, dose retest (AID 435004);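 note: stress induced by proteasome inhibitor MG132 added 30 min after compound; actives raise luminescence as potentiators of the MG132 stress response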", "format": "functional"}, "[6]": {"experiment": "Counterscreen for activators of the function of SWI/SNF related, matrix associated, actin dependent regulator of chromatin, subfamily a, member 2 (SMARCA2, BRM): Luminescence-based cell-based high throughput dose response assay to identify non-selective compounds using the VP16 reporter assay.", "format": "functional"}, "[7]": {"experiment": "cytotoxicity in HEK-293T cells, dose response, cytotoxicity control for TCR NF-kB inhibitor project, luminescence, T-cell screen hits (AID 489026);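 note: cells exposed to compound about 14 hours before the viability readout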", "format": "functional, cell-based"}, "[8]": {"experiment": "growth suppression of beta-catenin-knockout colon cells, dose response, cell-based, HCT116, human colon tumor (AID 1045);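 note: HCT116 colon tumor cells with beta catenin knocked out; cells exposed to compound for 60 hours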", "format": "functional"}, "[9]": {"target": "T2, DNA repair and recombination protein RAD54-like (Homo sapiens, UniProt Q92698)", "T2 sequence (Q92698 whole entry)": "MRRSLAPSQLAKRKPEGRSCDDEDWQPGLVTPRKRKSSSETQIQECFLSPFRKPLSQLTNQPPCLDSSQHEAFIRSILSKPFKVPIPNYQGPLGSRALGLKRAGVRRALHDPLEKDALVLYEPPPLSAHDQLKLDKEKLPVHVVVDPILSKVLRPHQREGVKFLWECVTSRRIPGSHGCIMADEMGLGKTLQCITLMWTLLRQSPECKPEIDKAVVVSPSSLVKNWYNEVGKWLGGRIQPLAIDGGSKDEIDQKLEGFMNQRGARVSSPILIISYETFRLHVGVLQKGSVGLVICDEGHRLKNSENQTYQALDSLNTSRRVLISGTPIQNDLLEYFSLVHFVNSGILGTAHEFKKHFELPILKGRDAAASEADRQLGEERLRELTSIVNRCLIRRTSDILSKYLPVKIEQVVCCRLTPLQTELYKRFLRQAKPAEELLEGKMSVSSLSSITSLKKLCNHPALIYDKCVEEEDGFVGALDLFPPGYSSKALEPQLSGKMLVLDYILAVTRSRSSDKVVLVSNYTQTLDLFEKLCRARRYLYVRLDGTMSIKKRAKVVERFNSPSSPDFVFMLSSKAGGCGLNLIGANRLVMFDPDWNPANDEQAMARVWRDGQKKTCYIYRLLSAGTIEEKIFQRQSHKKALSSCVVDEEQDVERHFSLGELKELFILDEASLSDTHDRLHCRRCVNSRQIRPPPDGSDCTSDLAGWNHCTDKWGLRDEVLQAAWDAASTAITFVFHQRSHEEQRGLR", "experiment": "inhibitors of human RAD54 branch migration, confirmation, biochemical, fluorescence, cherry-picked samples, dose series (AID 651657)", "format": "functional"}, "[10]": {"test_system": "Vero", "experiment": "Vero cell toxicity, dose response, cytotoxicity control, plate reader, cherry-pick samples (AID 687020)", "format": "functional, cell-based", "conditions": "Chlorocebus sabaeus"}, "[11]": {"experiment": "Counterscreen for IDE inhibitors: Luminescence-based cell-based high throughput dose response assay to identify compounds that are cytotoxic to HEK cells. [Related pubchem assays: 434962 (Primary screen (IDE inhibitors in singlicate)), 449730 (Counterscreen (Cytotoxicity in triplicate)), 435028 (Confirmation (IDE inhibitors in triplicate)) …", "format": "functional", "conditions": "HEK293"}, "[12]": {"target": "T3, Insulin-degrading enzyme (Homo sapiens, UniProt P14735)", "T3 sequence (P14735 whole entry)": "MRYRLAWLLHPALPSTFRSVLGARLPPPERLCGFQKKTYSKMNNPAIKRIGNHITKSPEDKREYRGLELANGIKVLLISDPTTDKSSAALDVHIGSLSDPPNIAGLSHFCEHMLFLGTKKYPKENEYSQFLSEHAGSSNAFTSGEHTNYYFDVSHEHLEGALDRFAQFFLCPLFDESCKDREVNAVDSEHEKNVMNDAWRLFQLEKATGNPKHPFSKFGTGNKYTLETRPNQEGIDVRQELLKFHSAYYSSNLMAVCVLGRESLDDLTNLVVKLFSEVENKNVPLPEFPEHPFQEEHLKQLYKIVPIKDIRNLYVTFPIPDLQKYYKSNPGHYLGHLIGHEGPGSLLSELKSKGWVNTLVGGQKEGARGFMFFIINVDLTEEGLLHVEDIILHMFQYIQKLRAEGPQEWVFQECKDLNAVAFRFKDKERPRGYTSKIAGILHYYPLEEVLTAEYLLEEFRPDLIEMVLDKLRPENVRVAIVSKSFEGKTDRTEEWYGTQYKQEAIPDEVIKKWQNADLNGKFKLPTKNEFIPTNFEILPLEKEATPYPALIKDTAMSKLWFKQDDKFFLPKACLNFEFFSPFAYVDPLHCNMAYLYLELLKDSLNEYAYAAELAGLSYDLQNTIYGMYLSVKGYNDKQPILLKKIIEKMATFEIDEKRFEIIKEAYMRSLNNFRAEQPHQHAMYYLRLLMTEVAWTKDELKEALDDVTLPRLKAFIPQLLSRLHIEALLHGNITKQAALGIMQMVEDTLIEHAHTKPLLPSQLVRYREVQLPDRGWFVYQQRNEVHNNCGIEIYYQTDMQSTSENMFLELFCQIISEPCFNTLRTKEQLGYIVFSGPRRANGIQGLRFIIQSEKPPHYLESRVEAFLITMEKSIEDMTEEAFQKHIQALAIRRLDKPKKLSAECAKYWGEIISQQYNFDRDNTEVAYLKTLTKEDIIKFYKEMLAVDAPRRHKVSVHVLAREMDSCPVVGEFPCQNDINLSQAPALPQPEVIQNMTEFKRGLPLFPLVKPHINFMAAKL", "experiment": "Dose Response: Fluorescence polarization-based cell-based high throughput dose response assay for inhibitors of insulin-degrading enzyme (IDE). [Related pubchem assays: 434962 (Primary screen (IDE inhibitors in singlicate)), 449730 (Counterscreen (Cytotoxicity in triplicate)), 435028 (Confirmation (IDE inhibitors in triplicate)), 434984 (Summary …", "format": "functional"}, "[13]": {"target": "T4, Beta-2 adrenergic receptor (Homo sapiens, UniProt P07550)", "T4 sequence (P07550 whole entry)": "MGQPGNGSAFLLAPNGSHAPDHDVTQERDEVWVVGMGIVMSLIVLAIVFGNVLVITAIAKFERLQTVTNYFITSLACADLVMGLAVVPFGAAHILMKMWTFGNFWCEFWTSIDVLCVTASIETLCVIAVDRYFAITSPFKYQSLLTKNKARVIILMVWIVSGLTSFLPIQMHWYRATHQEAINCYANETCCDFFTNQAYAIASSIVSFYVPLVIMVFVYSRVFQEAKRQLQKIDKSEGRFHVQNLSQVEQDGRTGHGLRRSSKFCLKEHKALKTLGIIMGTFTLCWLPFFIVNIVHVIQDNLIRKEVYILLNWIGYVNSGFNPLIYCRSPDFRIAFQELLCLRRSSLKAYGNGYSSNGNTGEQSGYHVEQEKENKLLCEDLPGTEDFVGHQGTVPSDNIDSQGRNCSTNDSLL", "experiment": "beta2AR agonists driving receptor internalization, dose response, cell-based, FAP fluorogen, flow cytometry, cherry pick 1 (AID 588763)", "format": "functional"}, "[14]": {"target": "T4, Beta-2 adrenergic receptor", "experiment": "Dose response for HTS for Beta-2AR agonists via FAP method from Powderset3.", "format": "functional"}, "[15]": {"target": "Kallikrein-7 (Homo sapiens, UniProt P49862)", "sequence (P49862 whole entry)": "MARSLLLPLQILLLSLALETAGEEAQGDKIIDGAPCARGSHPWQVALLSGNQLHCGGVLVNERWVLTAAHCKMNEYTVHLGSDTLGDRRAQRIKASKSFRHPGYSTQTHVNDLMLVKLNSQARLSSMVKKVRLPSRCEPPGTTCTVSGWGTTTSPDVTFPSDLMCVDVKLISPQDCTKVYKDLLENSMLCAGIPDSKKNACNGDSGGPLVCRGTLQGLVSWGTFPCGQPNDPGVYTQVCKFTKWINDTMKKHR", "experiment": "Fluorescence Intensity-based biochemical primary high throughput dose response assay to identify activators of kallikrein-7 (K7) zymogen."}, "[16]": {"experiment": "EDANS-DABCYL fluorescence interference, concentration series, dose response, artefact control for kallikrein-7 zymogen activator project, biochemical, fluorescence intensity, triplicate (AID 720493)"}}, "note": "Calls of active or inactive are those of the source."}
{"smiles": "Cc1cc(NC(=O)CSc2nc3c(sc4ccccc43)c(=O)n2CCCN2CCOCC2)[nH]n1", "values": [{"measurement": "EC50", "setting": "[1]", "result": "> 91.2 µM (inactive)"}, {"measurement": "IC50", "setting": "[2]", "result": "0.783 µM (active)"}, {"measurement": "EC50", "setting": "[3]", "result": "100 µM (active)"}, {"measurement": "AC50", "setting": "[4]", "result": "> 52 µM (inactive)"}, {"measurement": "EC50", "setting": "[5]", "result": "37.9 µM (active)"}, {"measurement": "EC50", "setting": "[6]", "result": "> 91.2 µM (inactive)"}, {"measurement": "IC50", "setting": "[7]", "result": "> 80 µM (inactive)"}, {"measurement": "EC50", "setting": "[8]", "result": "285 µM (active)"}]}
{"smiles": "Cc1ccc(-c2nc(N3CCN(C)CC3)c3ccccc3n2)cc1", "values": [{"measurement": "AC50", "setting": "[9]", "result": "41.3 µM (active)"}, {"measurement": "AC50", "setting": "[10]", "result": "26.8 µM (active)"}]}
{"smiles": "Clc1cccc(-c2nnc(SCc3nc4ccccc4[nH]3)n2Cc2ccco2)c1", "values": [{"measurement": "IC50", "setting": "[11]", "result": "22.4 µM (not active)"}, {"measurement": "IC50", "setting": "[12]", "result": "2.57 µM (active)"}, {"measurement": "EC50", "setting": "[13]", "result": "10.1 µM (inactive)"}, {"measurement": "EC50", "setting": "[14]", "result": "8.09 µM (active)"}]}
{"smiles": "COc1ccc(-c2coc3c(CN4CCCCC4C)c(O)ccc3c2=O)cc1", "note": "(stereo unspecified)", "values": [{"measurement": "EC50", "setting": "[15]", "result": "> 2.58 µM (active)"}, {"measurement": "EC50", "setting": "[16]", "result": "> 2.58 µM (active)"}]}
